Where two headings read alike, the source gives them in different places.
Assays:
[1] = test system: tobacco mosaic virus (TMV); assay: Anti-TMV curative activity (treatment mode), live friction inoculation on tobacco seedlings; type: in vivo; details: Tobacco mosaic virus, read-out: Anti-TMV activity, Curative effect (inhibition), 100 μg/mL, tobacco seedlings, checked on seventh day
[2] = test system: tobacco mosaic virus (TMV); assay: Anti-TMV inactivation activity (inactivation mode), compound mixed with TMV before inoculation of tobacco leaves; type: in vivo; details: Tobacco mosaic virus, read-out: Anti-TMV activity, Inactivation effect (inhibition)
[3] = test system: tobacco mosaic virus (TMV); assay: Anti-TMV protective activity (protection mode), live friction inoculation on tobacco seedlings; type: in vivo; details: Tobacco mosaic virus, read-out: Anti-TMV activity, Protection effect (inhibition)
[4] = test system: tobacco mosaic virus (TMV); assay: Anti-TMV inducing activity (induction mode), tobacco seedlings; type: in vivo; details: Tobacco mosaic virus, read-out: Anti-TMV activity, Induction effect (inhibition), 100 μg/mL, tobacco seedlings
Alternaria solani = assay: Fungicidal activity, fungi growth rate method, AS; type: cell-based; details: Alternaria solani, 50 μg/mL
Botrytis cinerea = assay: Fungicidal activity, fungi growth rate method, BC; type: cell-based; details: Botrytis cinerea, 50 μg/mL
Cercospora arachidicola = assay: Fungicidal activity, fungi growth rate method, CA; type: cell-based; details: Mycosphaerella arachidis; 50 μg/mL; read-out: Fungicidal activity, inhibition, CA
wheat Gibberella zeae = assay: microbe, parasite or virus in culture; type: cell-based; details: Fusarium graminearum
[5] = test system: Phytophthora infestans (Mont) de Bary; assay: microbe, parasite or virus in culture; type: cell-based; details: Phytophthora infestans
Physalospora piricola = assay: Fungicidal activity, fungi growth rate method, PP; type: cell-based; details: 50 μg/mL; read-out: Fungicidal activity, inhibition, PP
Pellicularia sasakii = assay: Fungicidal activity, fungi growth rate method, PS; type: cell-based; details: 50 μg/mL; read-out: Fungicidal activity, inhibition, PS
Rhizoctonia cerealis = assay: Fungicidal activity, fungi growth rate method, RC; type: cell-based; details: Ceratobasidium cereale, 50 μg/mL
Sclerotinia sclerotiorum = assay: microbe, parasite or virus in culture; type: cell-based; details: Sclerotinia sclerotiorum, 50 μg/mL
[6] = read-out: Fungicidal activity, inhibition, AS
[7] = read-out: Fungicidal activity, inhibition, BC
[8] = read-out: Fungicidal activity, inhibition, GZ
[9] = read-out: Fungicidal activity, inhibition, PI
[10] = read-out: Fungicidal activity, inhibition, RC
[11] = read-out: Fungicidal activity, inhibition, SS
[12] = read-out: Fungicidal activity (inhibition) against GZ: wheat Gibberella zeae
[13] = read-out: Fungicidal activity (inhibition) against SS: Sclerotinia sclerotiorum
[14] = read-out: Fungicidal activity (inhibition) against BC: Botrytis cinerea
[15] = read-out: Fungicidal activity (inhibition) against PI: Phytophthora infestans (Mont) de Bary

Row | SMILES | inhibition at 100 µg/mL [1] | inhibition at 100 µg/mL [2] | inhibition at 100 µg/mL [3] | inhibition at 100 µg/mL [4] | inhibition at 50 µg/mL (Alternaria solani; [6]) | inhibition at 50 µg/mL (Botrytis cinerea; [7]) | inhibition at 50 µg/mL (Cercospora arachidicola) | inhibition at 50 µg/mL (wheat Gibberella zeae; [8]) | inhibition at 50 µg/mL [5, 9] | inhibition at 50 µg/mL (Physalospora piricola) | inhibition at 50 µg/mL (Pellicularia sasakii) | inhibition at 50 µg/mL (Rhizoctonia cerealis; [10]) | inhibition at 50 µg/mL (Sclerotinia sclerotiorum; [11]) | melting point | inhibition at 50 µg/mL (wheat Gibberella zeae; [12]) | inhibition at 50 µg/mL (Sclerotinia sclerotiorum; [13]) | inhibition at 50 µg/mL (Botrytis cinerea; [14]) | inhibition at 50 µg/mL [5, 15] | inhibition at 50 µg/mL (Rhizoctonia cerealis; read-out: Fungicidal activity (inhibition) against RC: Rhizoctonia cerealis) | inhibition at 50 µg/mL (Alternaria solani; read-out: Fungicidal activity (inhibition) against AS: Alternaria solani)
1 | Cc1snnc1/C=C(\NC(=O)c1ccccc1)C(=O)O [Compound 70, (Z)-2-benzoylamino-3-[4-(5-methyl-1,2,3-thiadiazol)]propenoic acid] | 37% | 3% | 17% | 37% | 14% | 12% | 24% | 21% | 13% | 0% | 14% | 18% | 44% | 190 to 192 °C |  |  |  |  |  | 
2 | Cc1nnsc1/C=C(\NC(=O)c1ccccc1)C(=O)O [Compound 71, (Z)-2-benzoylamino-3-[5-(4-methyl-1,2,3-thiadiazol)]propenoic acid] | 0% | 67% | 53% | 27% | 14% | 12% | 24% | 86% | 21% | 6% | 9% | 18% | 47% | 215 to 217 °C | 86% |  |  |  |  | 
3 | CC(C)(C)OC(=O)N1CCC(c2nc(/C=C3\N=C(c4ccccc4)OC3=O)cs2)CC1 [Compound 73] | 0% | 59% | 11% | 8% | 36% | 10% | 16% | 23% | 24% | 19% | 20% | 24% | 89% | 189 to 191 °C |  | 80 to 95% |  |  |  | 
4 | CC(C)(C)OC(=O)N1CCC(c2nc(/C=C(\NC(=O)c3ccccc3)C(=O)O)cs2)CC1 [Compound 74, (Z)-2-benzoylamino-3-[4-[2-[4-(1-Boc-piperidine)]thiazol]]propenoic acid] | 3% | 0% | 48% | 63% | 36% | 41% | 39% | 42% | 40% | 32% | 38% | 44% | 89% | 125 to 127 °C |  | 80 to 95% | 41% | 40% | 44% | 
5 | Cc1nnsc1/C=C1\N=C(c2ccccc2)OC1=O [Compound 77, (4Z)-4-[5-(4-methyl-1,2,3-thiadiazol)ethenyl]-2-phenyl-1,3-oxazol-5-(4H)-one] | 0% | 0% | 40% | 44% | 11% | 12% | 24% | 43% | 16% | 6% | 14% | 23% | 47% | 196 to 198 °C |  | 47% |  |  |  | 
6 | Cc1snnc1/C=C1\N=C(c2ccccc2)OC1=O [Compound 78, (4Z)-4-[4-(5-methyl-1,2,3-thiadiazol)ethenyl]-2-phenyl-1,3-oxazol-5-(4H)-one] | 0% | 47% | 0% | 68% | 29% | 26% | 21% | 57% | 26% | 15% | 3% | 18% | 53% | 149 to 151 °C | 57% |  | 26% | 26% |  | 29%

— patent US11166460B2, “α-amino acrylate microbicide, and preparation method therefor and uses thereof” (priority 2017, dated 2021)
